Values of other authors, collected in US20110086017A1, “Medical Food composition and methods for management of inflammatory processes in mammals” (priority 2009, published 2011).

Test system: plasma exudate at the site of inflammation
Conditions: animal study; by decreasing bradykinin and pre-kallikrein levels

Substance: Bromelain
- plasma exudate at the site of inflammation: dose-dependently reduced plasma exudate
